These are literature values, as cited in patent US20110071071A1, “PSMB10: A DIAGNOSIS MARKER AND THERAPEUTIC TARGET OF CHRONIC REJECTION” (priority 2008, published 2011).

Data set [1] has as its target T1, chymotrypsin-like activity of the purified 20S proteasome (Homo sapiens, UniProt P28074).
T1 sequence (P28074 60-263): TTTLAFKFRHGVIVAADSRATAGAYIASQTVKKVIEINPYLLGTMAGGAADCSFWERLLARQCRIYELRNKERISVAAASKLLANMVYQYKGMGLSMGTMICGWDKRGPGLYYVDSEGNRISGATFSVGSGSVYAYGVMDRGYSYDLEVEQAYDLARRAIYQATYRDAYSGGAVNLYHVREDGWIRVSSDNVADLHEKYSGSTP
The conditions noted are these: in vitro.

Another data set concerns the target 20S proteasome (Homo sapiens, UniProt P28072+P28074+Q99436). Conditions: all three catalytic sites.
Data set [2] concerns murine neuroblastoma cell line Neuro-2a. Conditions: Neuro-2a cells.

Turning to `O=C(OC1Cc2c(O)cc(O)cc2OC1c1cc(O)c(O)c(O)c1)c1cc(O)c(O)c(O)c1` (single isomer, unassigned; (-)) [(−)-EGCG, (−)-epigallocatechin 3-gallate], the “inhibition of chymotrypsin-like (CT-L) activity of the 20S proteasome” value in data set [1] is listed as “inhibiting the chymotrypsin-like activity”.

`C[C@@]12OC(=O)[C@]1([C@@H](O)[C@@H]1C=CCCC1)NC(=O)[C@@H]2CCCl` [NPI-0052, salinosporamide A]: at 20S proteasome, the 20S proteasome inhibition result was “highly potent and selective 20S proteasome inhibitor with irreversible activity against all three catalytic sites”.

Take `CC(=O)N[C@@H](CSC(=O)[C@]1([C@@H](O)C(C)C)NC(=O)[C@H](C)[C@@H]1O)C(=O)O` [lactacystin]: the neurite outgrowth result in data set [2] is “induce neurite outgrowth”.
